Here are results for one sequence from patent publication US12729221B2, “Anti-inflammatory peptide and use thereof” (MITO QUEST CO., LTD., priority 2020, dated 2026).

Broadly, the Kd is a measure of binding affinity in units of concentration.

The test system of test [1] is NF-κB. Put plainly: LPS-induced phosphorylation of NF-kB in IC21, Western blot. The test is classed as cell-based, mouse. The following applies: LPS, Western blot, FIGS. 12B-D to 12B-F. For orientation: In western blotting, separated proteins are transferred to a membrane and probed.
Text: Specifically, LPS was used to induce an immune activation response caused by bacterial infection, and the phosphorylation of nuclear factor kappa-light-chain-enhancer of activated B cells (NF-kB) was checked to identify the mechanism of the immune activation response. […] Thereafter, the cells were washed with a PBS solution and then lysed with a RIPA buffer, and the supernatant was separated. In order to measure the change in the phosphorylation amount of NF-κB protein with the separated supernatant, the Western blot was performed as in Example 2.
For test [2], the target named is recombinant MAVS protein (Homo sapiens, UniProt Q7Z434). Put plainly: Binding of fluorescence-labeled peptides to plate-coated recombinant MAVS protein. On the procedure:
Specifically, recombinant MAVS protein and fluorescence-labeled peptides MQP-37 and MQP-37A6 were used to check the binding affinity to the MAVS protein. First, 250 ng of recombinant MAVS protein was coated on a 96-well plate for ELISA, followed by blocking with 1% BSA/PBS solution. Thereafter, fluorescence-labeled peptides of various concentrations were added thereto and reacted for 2 hours, and the amount of peptide bound to the MAVS protein was checked by fluorescence measurement.

Test [3] deals with interleukin-6 (IL-6). Put plainly: LPS-induced IL-6 expression in IC21, ELISA. The following applies: 0.1 mg/ml LPS, 6 hours, FIG. 12A-A. The test is classed as cell-based, mouse. (In general: An ELISA detects its analyte on a solid surface through an enzyme-linked reagent.)
Experimental: Specifically, LPS was used to induce an inflammatory response caused by bacterial infection. First, MQP-15, MQP-23, MQP-31, MQP-37 or MQP-Y9 was added to a serum-free cell culture medium containing 0.1 mg/ml LPS, followed by treatment with 1×10^5 cells of IC21 for 6 hours. Then, the supernatant was obtained and the expression levels of interleukin-6 (IL-6) and a tumor necrosis factor-alpha (TNF-a) were checked by ELISA.
The test system of test [4] is interferon-beta (IFN-b). Put plainly: polyIC-induced IFN-b expression in MLE-12 cells, ELISA. Particulars: 5 mg/ml polyIC, 16 hours, 25 mM or 2 mM peptide, FIG. 9A. The test is classed as cell-based, mouse. Here is the method: Specifically, polyinosinic:polycytidylic acid (polyIC), which is a synthetic ribonucleic acid known to be associated with viral infection among the PAMPs and promotes the production of interferon and is analogous to an RNA virus gene, was used to induce a viral infection response. First, a serum-free cell culture medium containing 5 mg/ml polyIC and MQP-15, MQP-23, MQP-31, MQP-37, MQP-Y9 or MQP-T234 was treated with 1×10^5 cells of a mouse lung epithelial cell line (MLE-12) for 16 hours. Then, the supernatant was obtained and the expression level of interferon-beta (IFN-b) was checked by enzyme-linked immunosorbent assay (ELISA).
(§1) Specifically, LPS and ATP were used to induce an inflammasome response caused by bacterial infection, and polyIC was used to induce an inflammatory response caused by viral infection. First, 1 mg/ml LPS and 5 mM or 1 mM novel alanine-substituted peptide were mixed in a serum-free cell culture medium, followed by treatment with 1×10^5 cells of IC21. Thereafter, 5 mM ATP and 5 mM or 1 mM novel alanine-substituted peptide were mixed in a serum-free cell culture medium and treated for 30 minutes. Then, the supernatant was obtained and the expression level of IL-1b was checked by ELISA. Also, 5 mg/ml polyIC and 25 mM or 2 mM novel alanine-substituted peptide were mixed in a serum-free cell culture medium, followed by treatment with 1×10^5 cells of MLE-12 for 16 hours. Thereafter, the supernatant was obtained and the expression level of IFN-b was checked by ELISA.
as §1, with “2” for “5 mM or 1”, “amino acid-substituted” for “alanine-substituted”, “and” for “and 25 mM or”
Specifically, polyIC was used to induce a viral infection response. First, a serum-free cell culture medium containing 5 mg/ml polyIC and MQP-37, MQP-37A6, MQP-37D6W, MQP-37D6Y, MQP-37D6H, MQP-37D6K, MQP-37D6R or MQP-37D6V was treated with 1×10^5 cells of MLE-12 for 16 hours. Then, the supernatant was obtained and the expression level of IFN-b was checked by ELISA.

Test [5] concerns mouse sepsis models induced by LPS. As to the kind of experiment: Mouse sepsis model induced by LPS, survival. The test is classed as in vivo, C57BL/6 wild-type mice. Here is the method: Specifically, 2 mg/kg and 5 mg/kg LPS were administered into the abdominal cavity of 7-week-old C57BL/6 wild-type mice every 6 hours, and 1 hour later, 0.4 mg/kg, 2 mg/kg and 10 mg/kg novel peptides were additionally administered into the abdominal cavity of the mice. Then, the survival of the mice was checked for 4 days.

Test [6] has as its system IL-1b. As to the kind of experiment: LPS/ATP-induced IL-1b expression (inflammasome response) in IC21, ELISA. The test is classed as cell-based, mouse. Particulars: 1 mg/ml LPS, 5 mM ATP 30 minutes. Here is the method: as §1
as §1, with “2” for “5 mM or 1”, “amino acid-substituted” for “alanine-substituted”, “and” for “and 25 mM or”
Specifically, LPS was used to induce an inflammatory response caused by bacterial infection. First, MQP-37 or MQP-37A6 was added to a serum-free cell culture medium containing 0.1 mg/ml LPS, followed by treatment with 1×10^5 cells of IC21 for 6 hours. Then, the supernatant was obtained and the expression level of IL-6 was checked by ELISA. Also, the Western blot was performed and the phosphorylation of NF-κB was checked to identify the mechanism of immune activation response. Thereafter, LPS and ATP were used to induce an inflammasome response caused by bacterial infection, LPS and ATP were used. First, 1 mg/ml LPS and L- or D-MQP-37 and MQP-37A6 were mixed in a serum-free cell culture medium and treated with 1×10^5 cells of IC21. Then, 5 mM ATP and MQP-37 or MQP-37A6 were mixed in a serum-free cell culture medium and treated for 30 minutes. Thereafter, the supernatant was obtained and the expression level of IL-1b was checked by ELISA.

Where no end group is shown, it is not given here.

recombinant MAVS protein, sequence (Q7Z434 whole entry, species assumed): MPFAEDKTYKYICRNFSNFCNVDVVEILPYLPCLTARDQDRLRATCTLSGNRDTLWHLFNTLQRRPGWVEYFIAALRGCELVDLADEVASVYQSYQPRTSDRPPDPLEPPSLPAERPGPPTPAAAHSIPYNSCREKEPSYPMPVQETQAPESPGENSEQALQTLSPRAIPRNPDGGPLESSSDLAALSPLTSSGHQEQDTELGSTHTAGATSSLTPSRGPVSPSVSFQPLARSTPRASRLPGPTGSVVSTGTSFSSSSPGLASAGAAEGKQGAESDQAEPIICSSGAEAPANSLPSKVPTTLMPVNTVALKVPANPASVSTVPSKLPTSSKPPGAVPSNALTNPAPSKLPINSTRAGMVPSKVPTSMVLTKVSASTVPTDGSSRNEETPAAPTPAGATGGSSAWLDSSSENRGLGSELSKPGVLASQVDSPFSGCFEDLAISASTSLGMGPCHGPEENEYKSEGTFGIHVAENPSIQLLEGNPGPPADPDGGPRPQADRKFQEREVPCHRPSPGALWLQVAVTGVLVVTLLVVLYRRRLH

SLVLAAARW [MQP-37A6]: the “immune activation response (NF-κB phosphorylation), compared with MQP-37” value in test [1] was “more than the original peptide MQP-37”. For the same sequence, the Kd in test [2] was roughly 750 µM. Further, in test [3], the “inflammatory response caused by bacterial infection (IL-6), compared with MQP-37” value is given as “more than the original peptide MQP-37”. The “inflammatory response caused by viral infection (IFN-b), compared to original MQP-37” value in test [4] is “significantly improved”. The treating sepsis entry in test [5] is listed as “effective”. For the same sequence, the “inflammasome response caused by bacterial infection (IL-1b), sixth amino acid of MQP-37 substituted” value in test [6] (2 mM peptide, FIG. 10A-B) was “most effectively”. The “inflammasome response caused by bacterial infection (IL-1b), compared to original MQP-37” value in test [6] (5 mM or 1 mM peptide, FIG. 9A) is recorded as “significantly improved”. In test [6] (FIGS. 12A-B and 12A-C), the “inflammasome response caused by bacterial infection (IL-1b), compared with MQP-37” value is on record as “more than the original peptide MQP-37”.
